Data taken from patent publication US20250250231A1, “NOVEL SUBSTITUTED 4-AMINO-4-OXO-BUT-2-ENYL DERIVATIVES, PROCESSES FOR THEIR PREPARATION AND THERAPEUTIC USES THEREOF” (SANOFI, priority 2022, published 2025).

Columns and labels:
Assay type in all cases: cell-based
MCF7-WT cells = test: In vitro anti-proliferation assay (CellTiter-Glo viability), MCF7-WT cells; conditions: Homo sapiens, MCF7, 192 h, MCF7-WT cells supplemented with 0.1 nM b-estradiol; viability on day 8; relative IC50
Description: (§1) Test: In vitro anti-proliferation assay
(§2) Said test involves measuring the in vitro anti-proliferation activity of the compounds of the Table 1a.
(§3) The measurements of the anti-proliferation activities were made using MCF7-WT (ATCC), MCF7-Y537S and HCC1428-LTED cells as described hereunder.
(§4) On Day 1, MCF7-WT and MCF7-Y537S (Mol Cancer Ther. 2021 20(2):250-262), and HCC1428-LTED (J Clin Invest. 2010; 120(7):2406-2413) cells, were seeded at 2000 (WT and LTED) and 500 (Y537S) cells/well in phenol red free IMEM (Corning, 110-026-CV) with 5% Charcoal stripped-FBS and incubated overnight 37° C. and 5% CO2.
(§5) On day 2, compounds were tested in triplicate in 10-point dose response (1:3 serial dilutions with a top concentration starting 300 nM); DMSO for upper limit (negative control) and staurosporine (1 uM) for lower limit (positive control) were also included. MCF7-WT cells were then supplemented with final 0.1 nM b-estradiol. After treating the cells, the assay plates were transferred back in the incubator at 37° C. and 5% CO2.
(§6) On day 8, cell viability was measured per vendor recommendations (CellTiter-Glo, Promega). Relative IC50 measurements were calculated as follow using a 4-parameter logistic derived from Levenburg Marquardt algorithm (IDBS XL Model 205 fit within A-base).

MCF7-Y537S cells = test: In vitro anti-proliferation assay (CellTiter-Glo viability), MCF7-Y537S cells; conditions: Homo sapiens, MCF7, 192 h, viability on day 8, relative IC50
Description: as §1, §2, §3, §4, §5, §6

HCC1428-LTED cells = test: In vitro anti-proliferation assay (CellTiter-Glo viability), HCC1428-LTED cells; conditions: Homo sapiens, HCC1428, 192 h, viability on day 8, relative IC50, read-out: HCC 1428 IC50
Description: as §1, §2, §3, §4, §5, §6

Row | SMILES | IC50 (MCF7-WT cells) [nM] | IC50 (MCF7-Y537S cells) [nM] | IC50 (HCC1428-LTED cells) [nM]
1 | CN(C)C(=O)/C=C/CN1CC/C(=C/c2ccc(C3=C(c4ccc(Cl)cc4Cl)CCCc4cc(C(=O)O)ccc43)cc2)C1 [Compound 20, 8-(2,4-dichlorophenyl)-9-(4-((Z)-(1-((E)-4-(dimethylamino)-4-oxobut-2-en-1-yl)pyrrolidin-3-ylidene)methyl)phenyl)-6,7-dihydro-5H-benzo[7]annulene-3-carboxylic acid] | 41 | ≥ 500 | 1
2 | CN(C)C(=O)/C=C/CN1CC(Nc2ccc(C3=C(c4ccc(Cl)cc4Cl)CCCc4cc(C(=O)O)ccc43)cc2)C1 [Compound 21, (E)-8-(2,4-dichlorophenyl)-9-(4-((1-(4-(dimethylamino)-4-oxobut-2-en-1-yl)azetidin-3-yl)amino)phenyl)-6,7-dihydro-5H-benzo[7]annulene-3-carboxylic acid] | 28 | ≥ 500 | 2.1
3 | CN(C)C(=O)/C=C/CN1CC[C@H](Oc2ccc(C3=C(c4ccc(Cl)cc4Cl)CCCc4cc(O)ccc43)cc2)C1 [Compound 23, (S,E)-4-(3-(4-(8-(2,4-dichlorophenyl)-3-hydroxy-6,7-dihydro-5H-benzo[7]annulen-9-yl)phenoxy)pyrrolidin-1-yl)-N,N-dimethylbut-2-enamide] | 26 | 23 | 0.03
4 | CN(C)C(=O)/C=C/CN1CC[C@H](Oc2ccc(C3=C(c4ccc(Cl)cc4Cl)CCOc4cc(C(=O)O)ccc43)cc2)C1 [Compound 24, (S,E)-4-(2,4-dichlorophenyl)-5-(4-((1-(4-(dimethylamino)-4-oxobut-2-en-1-yl)pyrrolidin-3-yl)oxy)phenyl)-2,3-dihydrobenzo[b]oxepine-8-carboxylic acid] | 160 | ≥ 500 | 4.4
5 | CN(C)C(=O)/C=C/CN1CC[C@H](Oc2ccc(C3=C(c4ccc(Cl)cc4Cl)CCc4cc(C(=O)O)ccc43)cc2)C1 [Compound 25, (S,E)-6-(2,4-dichlorophenyl)-5-(4-((1-(4-(dimethylamino)-4-oxobut-2-en-1-yl)pyrrolidin-3-yl)oxy)phenyl)-7,8-dihydronaphthalene-2-carboxylic acid] | 300 | ≥ 500 | 17

Compounds with a lower IC50 (MCF7-WT cells), results first:

Row | IC50 (MCF7-WT cells) [nM] | IC50 (MCF7-Y537S cells) [nM] | IC50 (HCC1428-LTED cells) [nM] | SMILES
6 | 11 | 184 | 0.6 | CN(C)C(=O)/C=C/CNCCOc1ccc(C2=C(c3ccc(Cl)cc3Cl)CCCc3cc(C(=O)O)ccc32)cc1 [Compound 22, (E)-8-(2,4-dichlorophenyl)-9-(4-(2-((4-(dimethylamino)-4-oxobut-2-en-1-yl)amino)ethoxy)phenyl)-6,7-dihydro-5H-benzo[7]annulene-3-carboxylic acid]
7 | 21 | 193 | 0.4 | CN(C)C(=O)/C=C/CN1CC[C@H](Oc2ccc(C3=C(c4ccc(Cl)cc4Cl)CCCc4ccccc43)cc2)C1 [Compound 26, (S,E)-4-(3-(4-(8-(2,4-dichlorophenyl)-6,7-dihydro-5H-benzo[7]annulen-9-yl)phenoxy)pyrrolidin-1-yl)-N,N-dimethylbut-2-enamide]
8 | 2.9 | 33 | 0.02 | CN(C)C(=O)/C=C/CN1CC[C@H](Oc2ccc(C3=C(c4ccc(Cl)cc4Cl)CCSc4cc(O)ccc43)cc2)C1 [Compound 27, (S,E)-4-(3-(4-(4-(2,4-dichlorophenyl)-8-hydroxy-2,3-dihydrobenzo[b]thiepin-5-yl)phenoxy)pyrrolidin-1-yl)-N,N-dimethylbut-2-enamide]
